In publication PMC5723097, “Molecular and functional characterization of ferredoxin NADP(H) oxidoreductase from Gracilaria chilensis and its complex with ferredoxin” (Biological Research, 2017):

System: T1, FNR^PBS (ferredoxin NADP(H) oxidoreductase)
T1 construct: gene petH; native enzyme in phycobilisome-enriched fraction; N-terminal peptides MAAVDKKK (1-8), VPINIFRPK (9-17); not recombinant
Assay: diaphorase assay, NADPH oxidation at […] nm, Michaelis-Menten fit
Assay type: biochemical, Gracilaria chilensis
Details: 0.15 mM DCPIP as acceptor, 50 mM Tris-HCl pH 8, 1 mM Na2EDTA; phycobilisome-enriched fraction, high salt

With `NC(=O)C1=CN([C@@H]2O[C@H](COP(=O)(O)OP(=O)(O)OC[C@H]3O[C@@H](n4cnc5c(N)ncnc54)[C@H](OP(=O)(O)O)[C@@H]3O)[C@@H](O)[C@H]2O)C=CC1` [NADPH] as the compound, how does the Km read?
The Km was 12.5 ± 1.8 µM.
